Experimental data reported in the supplement of paper PMC10307832.

Key:
Experiment in all cases: relative viability (nuclei count vs DMSO), 5 days (fraction); higher = more cells survive
[1] = compound: C1CC2=C(C1)C=C(C=C2)OC3=NC(=C4C(=N3)N(C=N4)CC5=CC=C(C=C5)C6=CC=CC=C6)N[C@@H](CC7=CC=CC=C7)CO [QS11] + N=C(N)NC(=N)NCCc1ccccc1 [Phenformin] (partner 250 µM)
How it was run: (§1)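 Relative viability equals treated-well nuclei counts divided by vehicle-well nuclei counts. Counts came from 4× images of lung cancer cell lines grown in 1536-well plates for 5 days after pin-tool dosing on the day after seeding. Dosing used one drug alone or a fixed anchor-drug dose plus five library-drug doses (not always all listed) in √10 steps, and values are medians of duplicate plates.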

[2] = compound: C1CC2=C(C1)C=C(C=C2)OC3=NC(=C4C(=N3)N(C=N4)CC5=CC=C(C=C5)C6=CC=CC=C6)N[C@@H](CC7=CC=CC=C7)CO [QS11] + Nc1ncn([C@H]2C[C@H](O)[C@@H](CO)O2)c(=O)n1 [Decitabine] (partner 2 µM)
How it was run: as §1

[3] = compound: CC1=C(C=C(C=C1)NC(=O)C2=CC(=CC=C2)C(C)(C)C#N)NC3=CC4=C(C=C3)N=CN(C4=O)C [AZ628] + Cc1nc(NC(=O)N2CCC[C@H]2C(N)=O)sc1-c1ccnc(C(C)(C)C(F)(F)F)c1 [Alpelisib] (partner 2 µM)
How it was run: as §1

[4] = compound: C[As](C)SC[C@H](NC(=O)CC[C@H](N)C(=O)O)C(=O)NCC(=O)O [Darinaparsin] + CS(=O)(=O)CCNCc1ccc(-c2ccc3ncnc(Nc4ccc(OCc5cccc(F)c5)c(Cl)c4)c3c2)o1 [Lapatinib] (partner 2 µM)
How it was run: as §1

Row | Cell Line | relative viability ([1]; first compound 0.08 µM) | relative viability ([1]; first compound 0.253 µM) | relative viability ([1]; first compound 0.8 µM) | relative viability ([1]; first compound 2.53 µM) | relative viability ([1]; first compound 8 µM) | relative viability ([2]; first compound 0.08 µM) | relative viability ([2]; first compound 0.253 µM) | relative viability ([2]; first compound 0.8 µM) | relative viability ([2]; first compound 2.53 µM) | relative viability ([2]; first compound 8 µM) | relative viability ([3]; first compound 0.08 µM) | relative viability ([3]; first compound 0.253 µM) | relative viability ([3]; first compound 0.8 µM) | relative viability ([3]; first compound 2.53 µM) | relative viability ([3]; first compound 8 µM) | relative viability ([4]; first compound 0.08 µM) | relative viability ([4]; first compound 0.8 µM) | relative viability ([4]; first compound 2.53 µM) | relative viability ([4]; first compound 8 µM)
1 | NCI-H1755 | 0.594 | 0.649 | 0.502 | 0.533 | 0.51 | 0.625 | 0.715 | 0.535 | 0.685 | 0.671 | 0.923 | 0.878 | 0.887 | 0.822 | 0.792 | 1.1 | 0.981 | 1.01 | 1.46
2 | NCI-H650 | 0.428 | 0.486 | 0.475 | 0.392 | 0.399 | 0.283 | 0.365 | 0.347 | 0.298 | 0.322 | 1.32 | 1.44 | 1.38 | 1.29 | 0.939 | 0.87 | 0.703 | 0.897 | 0.886
3 | SW 1573 | 0.407 | 0.374 | 0.413 | 0.442 | 0.346 | 0.548 | 0.612 | 0.558 | 0.475 | 0.388 | 0.787 | 0.742 | 0.693 | 0.567 | 0.538 | 1.1 | 1.1 | 1.09 | 1.22
4 | NCI-H322M | 0.784 | 0.824 | 0.803 | 0.877 | 1.06 | 0.741 | 0.739 | 0.672 | 0.801 | 0.935 | 0.925 | 0.719 | 0.824 | 0.747 | 0.655 | 0.611 | 0.603 | 0.52 | 0.603
5 | ABC-1 | 0.238 | 0.259 | 0.281 | 0.292 | 0.268 | 0.946 | 1.04 | 0.907 | 1.12 | 0.949 | 1.16 | 1.05 | 1.17 | 1.1 | 0.906 | 1.11 | 1.18 | 1.16 | 1.47
6 | NCI-H1993 | 0.522 | 0.583 | 0.528 | 0.615 | 0.52 | 0.614 | 0.621 | 0.655 | 0.543 | 0.573 | 0.73 | 0.61 | 0.662 | 0.631 | 0.739 | 0.854 | 0.736 | 0.722 | 0.534
7 | NCI-H1355 | 0.445 | 0.444 | 0.457 | 0.418 | 0.457 | 0.34 | 0.31 | 0.333 | 0.349 | 0.346 | 0.849 | 0.742 | 0.737 | 0.685 | 0.558 | 1.11 | 0.845 | 0.893 | 1.17
8 | PC-3 [JPC-3] | 0.446 | 0.476 | 0.461 | 0.489 | 0.431 | – | 0.76 | 0.836 | 0.871 | 0.806 | 1.01 | 1.08 | 1.06 | 1.11 | 0.97 | 0.458 | 0.364 | 0.411 | 0.492
9 | NCI-H1651 | 0.377 | 0.384 | 0.305 | 0.374 | 0.343 | 0.591 | 0.641 | 0.54 | 0.566 | 0.578 | 1.12 | 1.02 | 0.84 | 0.884 | 0.995 | 1.01 | 0.881 | 0.759 | 1.09
10 | NCI-H2342 | 0.632 | 0.62 | 0.638 | 0.599 | 0.615 | 0.744 | 0.724 | 0.715 | 0.718 | 0.77 | – | – | – | – | – | – | – | – | –
11 | NCI-H1703 | – | – | – | – | – | – | – | – | – | – | 0.216 | 0.2 | 0.215 | 0.213 | 0.181 | – | 1.18 | 1.29 | 1.18
12 | NCI-H1563 | 0.661 | 0.682 | 0.723 | 0.637 | 0.624 | – | – | – | – | – | 0.982 | 0.874 | 0.858 | 0.967 | 0.893 | 1.01 | 1.02 | 0.914 | 1.14
13 | NCI-H1299 | – | – | – | – | – | – | – | – | – | – | 1.01 | 1.22 | 1.22 | 1.24 | 0.763 | 1.09 | 0.955 | 0.958 | 0.853
14 | NCI-H522 | 0.689 | 0.656 | 0.621 | 0.705 | 0.677 | 0.704 | 0.569 | 0.677 | 0.664 | 0.726 | – | – | – | – | – | – | – | – | –
15 | NCI-H1648 | – | – | – | – | – | 0.516 | 0.436 | 0.476 | 0.443 | 0.665 | – | – | – | – | – | – | – | – | –
16 | CAL-12T | 0.571 | 0.572 | 0.552 | 0.594 | 0.561 | – | – | – | – | – | 1.29 | – | 1.2 | 1.34 | 0.503 | 0.698 | 0.557 | 0.775 | 0.68
17 | EBC-1 | – | – | – | – | – | – | – | – | – | – | 0.865 | 0.859 | 0.949 | 0.811 | 0.298 | 0.2 | 0.211 | 0.246 | 0.223
18 | IA-LM | – | – | – | – | – | – | – | – | – | – | 0.805 | 0.731 | 0.552 | 0.586 | 0.207 | 1.25 | 0.658 | 1.32 | 1.07
19 | ChaGo-K-1 | 0.366 | 0.561 | 0.542 | 0.588 | 0.421 | – | 0.515 | 0.5 | 0.56 | 0.443 | – | – | – | – | – | – | – | – | –
20 | LCLC-103H | 0.315 | 0.403 | 0.341 | 0.342 | 0.382 | 0.701 | 0.815 | – | 0.756 | 0.711 | 0.924 | 1.07 | 0.981 | 0.986 | 0.919 | – | – | – | –
21 | NCI-H1650 | 0.374 | 0.472 | 0.376 | 0.474 | 0.391 | 0.453 | 0.447 | 0.296 | 0.56 | 0.406 | – | – | – | – | – | 1 | 0.764 | 0.779 | 0.938
22 | NCI-H441 | 0.861 | 0.958 | 0.71 | 1.01 | 0.884 | 0.236 | 0.215 | 0.254 | 0.234 | 0.225 | 0.781 | 0.769 | 0.814 | 0.637 | 0.802 | – | – | – | –
